Reference: patent US6406856B1, “Biosensor” (Aberdeen University, priority 1998, dated 2002)

Assays:
[1] = system: non-dividing LucΔ S. cerevisiae strain cells; experiment: Non-dividing cell assay, light output, 96-well plates; type: cell-based, Saccharomyces cerevisiae; conditions: dilutions in 4.5% ethanol, cells in ddH2O, exposure 3, 5, 7, 9 h
Protocol: (§1) The following procedure was designed to monitor the effect of increasing the exposure time up to 9 hours and to determine the different responses of dividing and non-dividing biosensor cells to the presence of DNA-damaging agents. For assay preparation, the diluent used was ethanol at 4.5% final concentration. All ethidium bromide dilution standards were prepared in glassware. […] The black 96-well plates were covered with a plate sealer and incubated at 30° C. before and between readings. […] Additional of 100 μl citrate phosphate buffer (pH 2.5), containing 0.2 mM luciferin, was performed at each time point before luminescence quantification in a Lucy Anthos 1 luminometer using the Stingray (v2.0b31) software package. Following luminescence quantification 100 μl was removed from the blank well in the dividing assays for OD600 measurements and cell counts. […]
In FIG. 14, the effect of ethidium bromide on non-dividing cells was measured by recording the light output from cells in wells containing ethidium bromide dilutions prepared in 4.5% ethanol. […]

[2] = system: dividing LucΔ S. cerevisiae strain cells; experiment: Dividing cell assay, luciferase activity, 96-well plates; type: cell-based, Saccharomyces cerevisiae; conditions: dilutions in 4.5% ethanol, 1x SC (-ura), exposure 3, 5, 7, 9 h
Protocol: as §1
Thus in FIG. 13, the effect of ethidium bromide on dividing cells was measured by recording luciferase activity from cells in wells containing ethidium bromide dilutions prepared in 4.5% ethanol. […]

[3] = system: S. cerevisiae pPLUCΔP biosensor; experiment: S. cerevisiae pPLUCΔP biosensor luminescence toxicity assay; conditions: for detection of toxic substance by change in luminescence: 10 min exposure, toxicant at pH 5.5, FIGS. 5 and 6
Protocol: In vivo luciferase activity assays using S. cerevisiae require acidification to allow the substrate for the light reaction (luciferin) to freely enter intact cells. Therefore, a two-step assay procedure was designed to incorporate separate toxicity analysis without pH adjustment and subsequent acidification for luminescence quantification. In preparation for the assay, S. cerevisiae cells were harvested at peak luminescence (around 3 to 4×10^8 cells/ml), centrifuged at 700 g (3000 rpm) and washed twice in 5 mM KCl; keeping the original volume constant for the first wash, but halved for second wash (allowing for modified dilution in assay). The first step (exposure), 50 μl of washed S. cerevisiae cells are added to a 450 μl sample (pH generally not important). In an alternative procedure the S. cerevisiae can also be resuspended in water rather than in 5 mM Kcl. The second step (acificiation), 500 μl citrate phosphate buffer (pH2.5), also containing the luciferan (0.1 mM final concentration in 1 ml sample), are added to make up 1 ml total volume for subsequent luminescence quantification. The exposure time is generally 10 minutes, but this can be lengthened or shortened depending on assay requirements (e.g. FIGS. 10a, 10b and 11). The assay allows for the full pH durability of S. cerevisiae to be exploited as prior pH adjustment of samples is not required. Luminescence of the sample containing cuvettes are compared to a blank containing diluent(s) used in the assay. This blank defines 100% luminescence.
Dilutions were then made of the stock solutions using deionised water adjusted to pH5.5, as above. The cells were harvested at peak luminescence, centrifuged at 700 g and washed twice in 5 M KCl; keeping the original volume constant. The toxicant (450 μl) was added to each cuvette. The final volume was then made up to 500 μl using 3 to 4×10^7 cells. After 10 min, 500 μl of citrate phosphate buffer (pH 2.5) containing 5 μl of 20 mM luciferin was added to each cuvette and the bioluminescence was monitored.

| Structure (SMILES) | effect on non-dividing cells (light output) [1] | effect on dividing cells (luciferase activity) [2] | detection of copper after 48 hours growth of the biosensor ([3]; 10 min copper exposure, sensor cells used after 48 hours, FIG. 11) | detection of toxic substance by change in luminescence [3] |
| --- | --- | --- | --- | --- |
| CC[n+]1c(-c2ccccc2)c2cc(N)ccc2c2ccc(N)cc21 [ethidium bromide] | no clear toxic effect | clear decrease in cell division | – | – |
| [Cu] [copper] | – | – | still actively detecting | can detect |
| Oc1cc(Cl)cc(Cl)c1 [3,5-dichlorophenol] | – | – | – | can detect |
